Experiments:
AZD6738 = compound: C[C@@H]1COCCN1C2=NC(=NC(=C2)C3(CC3)[S@](=N)(=O)C)C4=C5C=CNC5=NC=C4 [AZD6738]; details: max 10 µM
Method in brief: (§1)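 Plates with 1536 wells received cancer cell lines in 7.5 μl of DMEM/F12 or RPMI containing 10% FBS. After 24 hours at 37°C and 5% CO2, cells were dosed for 72 hours with final DMSO typically 0.2%, and viability was read by CellTiter-Glo 2.0 luminescence scaled between blank-well and DMSO-well means. The single-agent IC50 was taken from a logistic fit of the dose responses made with a non-linear mixed effects model, that logistic curve having two parameters.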

Dasatinib = compound: CC1=C(C(=CC=C1)Cl)NC(=O)C2=CN=C(S2)NC3=CC(=NC(=N3)C)N4CCN(CC4)CCO [Dasatinib]; details: max 2 µM
Method in brief: as §1

Olaparib = compound: O=C(c1cc(Cc2n[nH]c(=O)c3ccccc23)ccc1F)N1CCN(C(=O)C2CC2)CC1 [Olaparib]; details: max 10 µM
Method in brief: as §1

5-Fluorouracil = compound: O=c1[nH]cc(F)c(=O)[nH]1 [5-Fluorouracil]; details: max 20 µM
Method in brief: as §1

AZD2811 = compound: CCN(CCO)CCCOc1ccc2c(Nc3cc(CC(=O)Nc4cccc(F)c4)[nH]n3)ncnc2c1 [AZD2811]; details: max 1 µM
Method in brief: as §1

Crizotinib = compound: C[C@@H](Oc1cc(-c2cnn(C3CCNCC3)c2)cnc1N)c1c(Cl)ccc(F)c1Cl [Crizotinib]; details: max 10 µM
Method in brief: as §1

Selumetinib = compound: Cn1cnc2c(F)c(Nc3ccc(Br)cc3Cl)c(C(=O)NOCCO)cc21 [Selumetinib]; details: max 10 µM
Method in brief: as §1

Trametinib = compound: CC(=O)Nc1cccc(-n2c(=O)n(C3CC3)c(=O)c3c(Nc4ccc(I)cc4F)n(C)c(=O)c(C)c32)c1 [Trametinib]; details: max 1 µM
Method in brief: as §1

Etoposide = compound: COc1cc([C@@H]2c3cc4c(cc3[C@@H](O[C@@H]3O[C@@H]5CO[C@@H](C)O[C@H]5[C@H](O)[C@H]3O)[C@H]3COC(=O)[C@H]23)OCO4)cc(OC)c1O [Etoposide]; details: max 10 µM
Method in brief: as §1

[1] = compound: O=C(Nc1ccc2[nH]nc(-c3ccncc3)c2c1)[C@@H]1CCN(CC(=O)N2CCN(c3ccc(-c4ncccn4)cc3)CC2)C1; details: max 5 µM
Method in brief: as §1

SG3199 = compound: CC1=CN2[C@@H](C1)C=NC3=CC(=C(C=C3C2=O)OC)OCCCCCOC4=C(C=C5C(=C4)N=C[C@@H]6CC(=CN6C5=O)C)OC [SG3199]; details: max 0.001 µM
Method in brief: as §1

SRA737 = compound: N#Cc1cnc(Nc2cc(NC[C@H]3CNCCO3)c(C(F)(F)F)cn2)cn1 [SRA737]; details: max 10 µM
Method in brief: as §1

Paclitaxel = compound: CC(=O)O[C@H]1C(=O)[C@@]2(C)[C@H]([C@H](OC(=O)c3ccccc3)[C@]3(O)C[C@H](OC(=O)[C@H](O)[C@@H](NC(=O)c4ccccc4)c4ccccc4)C(C)=C1C3(C)C)[C@]1(OC(C)=O)CO[C@@H]1C[C@@H]2O [Paclitaxel]; details: max 3 µM
Method in brief: as §1

Lapatinib = compound: CS(=O)(=O)CCNCc1ccc(-c2ccc3ncnc(Nc4ccc(OCc5cccc(F)c5)c(Cl)c4)c3c2)o1 [Lapatinib]; details: max 10 µM
Method in brief: as §1

AZD4320 = compound: CN(CC[C@H](CSC1=CC=CC=C1)NC2=C(C=C(C=C2)S(=O)(=O)NC(=O)C3=CC=C(C=C3)N4CCC(CC4)[C@H](C5=CC=CC=C5C6=CC=C(C=C6)Cl)O)S(=O)(=O)C(F)(F)F)CCO [AZD4320]; details: max 1 µM
Method in brief: as §1

Gefitinib = compound: COc1cc2ncnc(Nc3ccc(F)c(Cl)c3)c2cc1OCCCN1CCOCC1 [Gefitinib]; details: max 10 µM
Method in brief: as §1

AZD1390 = compound: CC(C)n1c(=O)n(C)c2cnc3cc(F)c(-c4ccc(OCCCN5CCCCC5)nc4)cc3c21 [AZD1390]; details: max 0.3 µM
Method in brief: as §1

Venetoclax = compound: CC1(C)CCC(CN2CCN(c3ccc(C(=O)NS(=O)(=O)c4ccc(NCC5CCOCC5)c([N+](=O)[O-])c4)c(Oc4cnc5[nH]ccc5c4)c3)CC2)=C(c2ccc(Cl)cc2)C1 [Venetoclax]; details: max 1 µM
Method in brief: as §1

MK-2206 = compound: NC1(c2ccc(-c3nc4ccn5c(=O)[nH]nc5c4cc3-c3ccccc3)cc2)CCC1 [MK-2206]; details: max 10 µM
Method in brief: as §1

SN-38 = compound: CCc1c2c(nc3ccc(O)cc13)-c1cc3c(c(=O)n1C2)COC(=O)[C@]3(O)CC [SN-38]; details: max 0.3 µM
Method in brief: as §1

Carboplatin = compound: C1CC(C1)(C(=O)[O-])C(=O)[O-].N.N.[Pt+2] [Carboplatin]; details: max 10 µM
Method in brief: as §1

Alisertib = compound: COc1cc(Nc2ncc3c(n2)-c2ccc(Cl)cc2C(c2c(F)cccc2OC)=NC3)ccc1C(=O)O [Alisertib]; details: max 10 µM
Method in brief: as §1

Palbociclib = compound: CC(=O)c1c(C)c2cnc(Nc3ccc(N4CCNCC4)cn3)nc2n(C2CCCC2)c1=O [Palbociclib]; details: max 10 µM
Method in brief: as §1

AZD0156 = compound: CN(C)CCCOc1ccc(-c2ccc3ncc4c(c3c2)n(C2CCOCC2)c(=O)n4C)cn1 [AZD0156]; details: max 3 µM
Method in brief: as §1

AZD7648 = compound: Cc1cc2ncnn2cc1Nc1ncc2c(n1)n(C1CCOCC1)c(=O)n2C [AZD7648]; details: max 10 µM
Method in brief: as §1

AZD5153 = compound: COc1nnc2ccc(N3CCC(c4ccc(OCCN5CCN(C)C(=O)[C@H]5C)cc4)CC3)nn12 [AZD5153]; details: max 1 µM
Method in brief: as §1

Gemcitabine = compound: Nc1ccn([C@@H]2O[C@H](CO)[C@@H](O)C2(F)F)c(=O)n1 [Gemcitabine]; details: max 0.3 µM
Method in brief: as §1

AZD5363 = compound: C1CN(CCC1(C(=O)N[C@@H](CCO)C2=CC=C(C=C2)Cl)N)C3=NC=NC4=C3C=CN4 [AZD5363]; details: max 10 µM
Method in brief: as §1

AZD8186 = compound: C[C@@H](Nc1cc(F)cc(F)c1)c1cc(C(=O)N(C)C)cc2c(=O)cc(N3CCOCC3)oc12 [AZD8186]; details: max 10 µM
Method in brief: as §1

Doxorubicin = compound: COc1cccc2c1C(=O)c1c(O)c3c(c(O)c1C2=O)C[C@@](O)(C(=O)CO)C[C@@H]3O[C@H]1C[C@H](N)[C@H](O)[C@H](C)O1 [Doxorubicin]; details: max 1 µM
Method in brief: as §1

Prexasertib = compound: COc1cccc(OCCCN)c1-c1cc(Nc2cnc(C#N)cn2)n[nH]1 [Prexasertib]; details: max 1 µM
Method in brief: as §1

AZD1775 = compound: C=CCn1c(=O)c2cnc(Nc3ccc(N4CCN(C)CC4)cc3)nc2n1-c1cccc(C(C)(C)O)n1 [AZD1775]; details: max 3 µM
Method in brief: as §1

Savolitinib = compound: C[C@@H](c1ccc2nccn2c1)n1nnc2ncc(-c3cnn(C)c3)nc21 [Savolitinib]; details: max 1 µM
Method in brief: as §1

AZD5991 = compound: Cc1c2c(nn1C)CSCc1cc(n(C)n1)CSc1cc(c3ccccc3c1)OCCCc1c(C(=O)O)n(C)c3c-2c(Cl)ccc13 [AZD5991]; details: max 1 µM
Method in brief: as §1

Taselisib = compound: Cc1nc(-c2cn3c(n2)-c2ccc(-c4cnn(C(C)(C)C(N)=O)c4)cc2OCC3)n(C(C)C)n1 [Taselisib]; details: max 10 µM
Method in brief: as §1

| Cell Line | IC50, cell viability 72 h (AZD6738) [µM] | IC50, cell viability 72 h (Dasatinib) [µM] | IC50, cell viability 72 h (Olaparib) [µM] | IC50, cell viability 72 h (5-Fluorouracil) [µM] | IC50, cell viability 72 h (AZD2811) [µM] | IC50, cell viability 72 h (Crizotinib) [µM] | IC50, cell viability 72 h (Selumetinib) [µM] | IC50, cell viability 72 h (Trametinib) [µM] | IC50, cell viability 72 h (Etoposide) [µM] | IC50, cell viability 72 h [1] [µM] | IC50, cell viability 72 h (SG3199) [µM] | IC50, cell viability 72 h (SRA737) [µM] | IC50, cell viability 72 h (Paclitaxel) [µM] | IC50, cell viability 72 h (Lapatinib) [µM] | IC50, cell viability 72 h (AZD4320) [µM] | IC50, cell viability 72 h (Gefitinib) [µM] | IC50, cell viability 72 h (AZD1390) [µM] | IC50, cell viability 72 h (Venetoclax) [µM] | IC50, cell viability 72 h (MK-2206) [µM] | IC50, cell viability 72 h (SN-38) [µM] | IC50, cell viability 72 h (Carboplatin) [µM] | IC50, cell viability 72 h (Alisertib) [µM] | IC50, cell viability 72 h (Palbociclib) [µM] | IC50, cell viability 72 h (AZD0156) [µM] | IC50, cell viability 72 h (AZD7648) [µM] | IC50, cell viability 72 h (AZD5153) [µM] | IC50, cell viability 72 h (Gemcitabine) [µM] | IC50, cell viability 72 h (AZD5363) [µM] | IC50, cell viability 72 h (AZD8186) [µM] | IC50, cell viability 72 h (Doxorubicin) [µM] | IC50, cell viability 72 h (Prexasertib) [µM] | IC50, cell viability 72 h (AZD1775) [µM] | IC50, cell viability 72 h (Savolitinib) [µM] | IC50, cell viability 72 h (AZD5991) [µM] | IC50, cell viability 72 h (Taselisib) [µM] |
| --- | --- | --- | --- | --- | --- | --- | --- | --- | --- | --- | --- | --- | --- | --- | --- | --- | --- | --- | --- | --- | --- | --- | --- | --- | --- | --- | --- | --- | --- | --- | --- | --- | --- | --- | --- |
| KURAMOCHI (Ovarian Carcinoma) | 6.97 | 0.1 | > 10 | > 20 | > 1 | > 10 | > 10 | > 1 | > 10 | > 5 | > 0.001 | 4.48 | 1.67 | > 10 | > 1 | > 10 | > 0.3 | > 1 | > 10 | 0.171 | > 10 | > 10 | > 10 | > 3 | > 10 | 0.14 | > 0.3 | > 10 | > 10 | > 1 | 0.0528 | 2.44 | > 1 | > 1 | > 10 |
| T98G (Glioblastoma) | 2.59 | 0.287 | > 10 | > 20 | > 1 | > 10 | > 10 | > 1 | > 10 | > 5 | > 0.001 | 2.04 | 0.0146 | > 10 | > 1 | > 10 | > 0.3 | > 1 | > 10 | > 0.3 | > 10 | > 10 | > 10 | > 3 | > 10 | > 1 | 0.119 | > 10 | 5.45 | > 1 | 0.031 | 1.05 | > 1 | > 1 | 5.87 |

Reference: the supplement of paper PMC11061612
